Measurements taken from patent US11884612B2, “Covalent peptide binders” (The Regents of the University of California, priority 2016, dated 2024).
Entries after “also recorded” stand apart in the source; their conditions may differ. Positions of bridges follow the written chain, without caps; N, C: chain ends. Non-standard residues stand in square brackets, D forms with d. Residues, ends and D or L forms follow the SMILES beside them. *: point of attachment. Benzoyl(3-SO2F) = O=C(c1cccc(S(=O)(=O)F)c1)*; R8 = C=CCCCCCC[C@@](C)(N)C(=O)O; S5 = C=CCCC[C@](C)(N)C(=O)O; Dap = NC[C@H](N)C(=O)O

How the values were obtained:
Brca1-Bard1 interaction = biological target: T1, Brca1-Bard1 interaction (Homo sapiens, UniProt P38398+Q99728); test: ReBiL assay of peptide inhibition of Brca1-Bard1 interaction in cell lysates (binding selectivity); type: biochemical; settings: cell lysates of Saos-2 cells
T1 construct: expressed in transfected cells; host or cells: Saos-2 ReBiL reporter cells; lysate
Description: To test the binding selectivity of peptides 2, 4 and 5, we then incubated the peptides with cell lysates of Saos-2 cells harboring ReBiL system expressing Brca1-Bard1 instead of p53-Mdm2/Mdmx.

His-tagged Mdm4 = test: Covalent binding to purified Mdm4 (anti-His immunoblot band shift, ESI-MS)
Excerpt: FIG. 4. […] After separation by SDS-PAGE, an anti-His antibody was used to detect Mdm4.

p53-Mdm4 interaction = biological target: T2, p53-Mdm4 interaction (Homo sapiens, UniProt O15151); test: ReBiL assay of peptide inhibition of p53-Mdm4 interaction in cell lysates; type: biochemical; settings: Saos-2 cell lysates
T2 construct: expressed in transfected cells; host or cells: Saos-2 (p53-null) ReBiL reporter cells; lysate
T2 sequence (O15151 1-490): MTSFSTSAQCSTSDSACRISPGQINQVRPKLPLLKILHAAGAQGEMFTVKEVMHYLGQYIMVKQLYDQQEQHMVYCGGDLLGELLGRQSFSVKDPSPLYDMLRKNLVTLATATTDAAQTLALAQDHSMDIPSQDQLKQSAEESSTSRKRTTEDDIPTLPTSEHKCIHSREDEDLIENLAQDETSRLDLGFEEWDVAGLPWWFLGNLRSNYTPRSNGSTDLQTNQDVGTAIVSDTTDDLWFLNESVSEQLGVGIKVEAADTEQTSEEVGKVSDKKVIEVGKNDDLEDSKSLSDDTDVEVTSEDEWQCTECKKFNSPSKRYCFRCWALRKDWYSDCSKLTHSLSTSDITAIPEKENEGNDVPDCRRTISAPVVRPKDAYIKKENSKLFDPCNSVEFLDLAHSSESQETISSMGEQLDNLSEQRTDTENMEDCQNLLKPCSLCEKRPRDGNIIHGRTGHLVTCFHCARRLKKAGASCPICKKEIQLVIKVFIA
Excerpt: In ReBiL, luciferase is split and separately fused to Mdm2/Mdm4 and p53, and the expression cassette is integrated into a single chromosomal site in host cells (FIG. 3A). Inhibition of the interaction between p53 and Mdm2/Mdm4 results in a decrease in luciferase activity.

p53 null Saos-2 cells = test: Cell viability (p53-independent cytotoxicity), CELL TITER-GLO assay; settings: 37° C., 8 h, 50, 25, 12.5 uM
Description: Error bars are s.e.m. (n=5) and normalized to the luminescence reading of DMSO treated cells.
Cell viability was measured on the p53-null Saos-2 cells by CELL TITER-GLO® assay per Promega's instructions. Peptides were incubated with the Saos-2 cells at 37° C. for 8 h.

T1 sequence (P38398 whole entry): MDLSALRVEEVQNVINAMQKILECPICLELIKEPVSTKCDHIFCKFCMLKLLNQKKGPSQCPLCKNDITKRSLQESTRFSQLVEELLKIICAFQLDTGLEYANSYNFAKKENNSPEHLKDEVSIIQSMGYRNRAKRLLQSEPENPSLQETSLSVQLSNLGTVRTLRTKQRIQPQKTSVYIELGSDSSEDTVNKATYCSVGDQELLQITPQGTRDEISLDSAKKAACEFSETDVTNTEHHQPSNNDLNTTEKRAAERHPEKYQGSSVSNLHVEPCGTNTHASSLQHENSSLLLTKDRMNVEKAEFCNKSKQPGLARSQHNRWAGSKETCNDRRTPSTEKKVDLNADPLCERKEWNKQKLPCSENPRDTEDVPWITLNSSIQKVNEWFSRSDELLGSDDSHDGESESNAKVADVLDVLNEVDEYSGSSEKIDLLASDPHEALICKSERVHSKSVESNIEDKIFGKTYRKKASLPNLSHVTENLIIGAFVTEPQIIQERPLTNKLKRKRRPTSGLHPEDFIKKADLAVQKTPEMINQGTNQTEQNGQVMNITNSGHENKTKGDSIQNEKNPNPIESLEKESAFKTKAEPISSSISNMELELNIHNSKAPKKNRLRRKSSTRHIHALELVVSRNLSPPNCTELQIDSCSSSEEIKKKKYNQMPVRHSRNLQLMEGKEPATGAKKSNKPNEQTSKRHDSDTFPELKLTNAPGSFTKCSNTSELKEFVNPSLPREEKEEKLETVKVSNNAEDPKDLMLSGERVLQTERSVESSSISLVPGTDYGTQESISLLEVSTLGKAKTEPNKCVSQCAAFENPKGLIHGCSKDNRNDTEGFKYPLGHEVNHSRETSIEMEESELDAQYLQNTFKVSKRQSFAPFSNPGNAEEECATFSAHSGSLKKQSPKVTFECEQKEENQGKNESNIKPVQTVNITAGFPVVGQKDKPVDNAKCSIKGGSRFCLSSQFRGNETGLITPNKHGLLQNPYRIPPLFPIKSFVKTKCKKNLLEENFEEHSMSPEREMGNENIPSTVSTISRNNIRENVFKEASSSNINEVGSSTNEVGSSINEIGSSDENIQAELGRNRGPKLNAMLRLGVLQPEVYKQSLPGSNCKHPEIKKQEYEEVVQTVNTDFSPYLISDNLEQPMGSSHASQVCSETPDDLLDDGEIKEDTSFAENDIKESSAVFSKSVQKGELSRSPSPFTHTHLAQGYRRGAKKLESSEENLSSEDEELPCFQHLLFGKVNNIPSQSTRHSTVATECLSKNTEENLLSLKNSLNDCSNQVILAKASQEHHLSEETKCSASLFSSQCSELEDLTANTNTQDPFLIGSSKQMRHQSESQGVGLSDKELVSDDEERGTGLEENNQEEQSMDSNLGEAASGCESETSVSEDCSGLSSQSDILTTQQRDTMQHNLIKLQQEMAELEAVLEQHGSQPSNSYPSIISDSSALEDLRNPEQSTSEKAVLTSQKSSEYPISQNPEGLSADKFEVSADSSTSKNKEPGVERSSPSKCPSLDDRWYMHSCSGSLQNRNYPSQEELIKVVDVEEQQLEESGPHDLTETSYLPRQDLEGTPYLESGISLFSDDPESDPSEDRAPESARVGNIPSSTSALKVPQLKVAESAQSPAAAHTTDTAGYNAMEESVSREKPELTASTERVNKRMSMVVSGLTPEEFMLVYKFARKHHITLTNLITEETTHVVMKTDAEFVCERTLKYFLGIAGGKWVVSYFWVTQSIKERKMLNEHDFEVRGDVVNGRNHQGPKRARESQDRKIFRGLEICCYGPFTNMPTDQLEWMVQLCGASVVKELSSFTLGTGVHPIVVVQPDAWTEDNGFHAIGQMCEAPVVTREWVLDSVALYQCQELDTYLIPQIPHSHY
T1 sequence (Q99728 whole entry): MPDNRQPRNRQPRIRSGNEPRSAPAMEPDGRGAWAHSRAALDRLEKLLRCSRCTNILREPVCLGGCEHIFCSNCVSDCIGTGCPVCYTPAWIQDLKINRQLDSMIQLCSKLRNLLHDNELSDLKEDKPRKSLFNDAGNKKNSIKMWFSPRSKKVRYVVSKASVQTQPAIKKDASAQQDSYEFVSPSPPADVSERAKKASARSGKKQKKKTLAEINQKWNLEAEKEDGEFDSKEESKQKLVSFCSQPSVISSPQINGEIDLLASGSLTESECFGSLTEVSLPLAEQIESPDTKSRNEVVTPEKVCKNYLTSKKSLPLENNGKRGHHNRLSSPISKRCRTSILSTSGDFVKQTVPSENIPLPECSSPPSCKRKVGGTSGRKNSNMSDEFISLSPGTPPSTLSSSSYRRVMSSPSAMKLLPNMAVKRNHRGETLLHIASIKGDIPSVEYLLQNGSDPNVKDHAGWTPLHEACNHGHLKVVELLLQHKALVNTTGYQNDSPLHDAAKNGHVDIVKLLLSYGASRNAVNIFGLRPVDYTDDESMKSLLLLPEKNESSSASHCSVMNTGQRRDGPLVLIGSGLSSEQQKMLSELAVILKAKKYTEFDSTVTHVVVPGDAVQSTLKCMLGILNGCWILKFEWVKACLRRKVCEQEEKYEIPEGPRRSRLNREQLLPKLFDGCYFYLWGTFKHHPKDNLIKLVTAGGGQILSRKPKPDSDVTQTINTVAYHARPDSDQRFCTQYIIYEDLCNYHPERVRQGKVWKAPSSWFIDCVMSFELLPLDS

`CC(=O)N[C@@H](CCC(N)=O)C(=O)N[C@@H](CO)C(=O)N[C@@H](CCC(N)=O)C(=O)N[C@@H](CCC(N)=O)C(=O)N[C@H](C(=O)N[C@@H](Cc1ccccc1)C(=O)N[C@]1(C)CCCCCCC=CCCC[C@@](C)(C(=O)N[C@@H](CCC(N)=O)C(=O)N[C@@H](CC(N)=O)C(N)=O)NC(=O)[C@H](CC(C)C)NC(=O)[C@H](CC(C)C)NC(=O)[C@H](CCCNC(=N)N)NC(=O)[C@H](Cc2c[nH]c3ccccc23)NC(=O)[C@H](CNC(=O)c2cccc(S(=O)(=O)F)c2)NC(=O)[C@H](CC(N)=O)NC1=O)[C@@H](C)O` [Peptide 4] (Ac-QSQQTF[R8]N[Dap](Benzoyl(3-SO2F))WRLL[S5]QN-NH2; staple 7-14 (inferred)) was tested, and the “inhibition of Brca1-Bard1 interaction” value (Brca1-Bard1 interaction) was “did not inhibit”, the “time until crosslinking ("sulfate click reaction") with Mdm4 was complete” value (His-tagged Mdm4; 37° C., PBS buffer pH 7.5) was at most 10 min and the “shift of Mdm4 band to higher molecular weight (covalent binding), immunoblot” value (His-tagged Mdm4; Mdm4 1.5 μM, peptide 3 μM, PBS buffer pH 7.5, 37° C., 10, 20 and 60 min) was “shifted the Mdm4 band to a higher molecular weight; also recorded: shift of the band to a higher molecular weight”. The “covalent complex formation with Mdm4 by ESI-MS” value (His-tagged Mdm4; incubated 60 min) was “confirmed the covalent complex formation”, the “activity to Mdm4 relative to Mdm2” value (p53-Mdm4 interaction) was “ten-fold higher” and the “cell viability / cytotoxicity” value (p53 null Saos-2 cells) was “no significant cytotoxicity; also recorded: nontoxic”.
